Data set [1] addresses Voltage-gated inwardly rectifying potassium channel KCNH2 (Homo sapiens, UniProt Q12809). The data set can be described thus: Inhibition of human ERG assessed as decrease in tail current amplitude measured after 5 mins by whole cell patch clamp technique. (In patch-clamp work, channel activity is measured electrically.)
Data set [2] concerns Rattus norvegicus. The data set can be described thus: Potentiation of risperidone-induced catalepsy in Sprague-Dawley rats at 10 mg/kg, sc administered 15 mins after risperidone injection measured after 45 mins. In kind it is ADME, organism-based. Details: dose 10 mg/kg, route subcutaneous. The settings on record: in vivo, 0.75 h.
The subject of data set [3] is Cynomolgus monkey. The data set can be described thus: Cardiotoxicity in telemetered cynomolgus monkey assessed as prolongation of QTc interval at 1.5 to 6 mg/kg, sc measured after 1 to 4 hrs by telemetry method. The data set is classed as toxicity, organism-based, Macaca fascicularis. Details: route subcutaneous. The settings on record: in vivo.
The test system of data set [4] is Rattus norvegicus. Kind of data set: Antipsychotic activity in Sprague-Dawley rats assessed as reversal of methamphetamine-induced hyperlocomotion at 0.6 mg/kg, sc administered 30 mins prior to methamphetamine injection measured for 80 mins from 10 mins after methamphetamine challenge in presence of 0.6 mg/kg, po risperidone. In kind it is functional, organism-based.

Data set [5] deals with T1, Muscarinic acetylcholine receptor M2 (Homo sapiens) (UniProt P08172).
T1 sequence (whole entry): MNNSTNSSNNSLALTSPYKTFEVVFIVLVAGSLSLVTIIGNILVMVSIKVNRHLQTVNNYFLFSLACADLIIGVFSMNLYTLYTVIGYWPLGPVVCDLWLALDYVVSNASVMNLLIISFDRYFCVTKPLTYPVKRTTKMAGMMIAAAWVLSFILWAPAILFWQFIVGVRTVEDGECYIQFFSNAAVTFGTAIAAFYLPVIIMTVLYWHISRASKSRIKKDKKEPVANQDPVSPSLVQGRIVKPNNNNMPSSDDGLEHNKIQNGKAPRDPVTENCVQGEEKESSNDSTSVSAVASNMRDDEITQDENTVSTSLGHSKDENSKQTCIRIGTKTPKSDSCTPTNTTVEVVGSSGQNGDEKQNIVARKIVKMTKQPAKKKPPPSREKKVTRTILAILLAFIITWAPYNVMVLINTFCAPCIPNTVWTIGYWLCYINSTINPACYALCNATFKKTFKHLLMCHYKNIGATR
The data set can be described thus: Partial agonist activity at human M2 receptor co-expressed with Galpha16 in CHO cells assessed as calcium mobilization at 30 uM after 60 mins by FLIPR assay. The data set is classed as functional, cell-based. (In general: Calcium flux is commonly read through the fluorescence of an indicator in the cells.)

For data set [6], the system named is Rattus norvegicus. Kind of data set: Antipsychotic activity in Sprague-Dawley rats assessed as inhibition of apomorphine-induced prepulse inhibition deficit at 1 to 10 mg/kg, sc administered 15 mins prior to apomorphine injection measured after 15 mins. In kind it is functional, organism-based.
Data set [7] deals with Cynomolgus monkey. Kind of data set: Induction of miosis in sc dosed cynomolgus monkey. The data set is classed as organism-based, Macaca fascicularis. The settings on record: in vivo.
The target of data set [8] is Muscarinic acetylcholine receptor M3 (Homo sapiens) (UniProt P20309). Kind of data set: Partial agonist activity at human M3 receptor in CHO cells assessed as calcium mobilization at 30 uM after 60 mins by FLIPR assay. The data set is classed as functional, cell-based.
The test system of data set [9] is Cynomolgus monkey. Kind of data set: Cardiotoxicity in telemetered cynomolgus monkey assessed as increase in mean blood pressure at 1.5 to 6 mg/kg, sc measured after 1 to 4 hrs by telemetry method. The data set is classed as toxicity, organism-based, Macaca fascicularis. Details: route subcutaneous. The settings on record: in vivo.
Data set [10] concerns the target T1, Muscarinic acetylcholine receptor M2 (Homo sapiens). The data set can be described thus: Partial agonist activity at human M2 receptor co-expressed with Galpha16 in CHO cells assessed as calcium mobilization at 3 uM after 60 mins by FLIPR assay. The data set is classed as functional, cell-based.
Data set [11] deals with Cynomolgus monkey. The data set can be described thus: Induction of vomiting in sc dosed cynomolgus monkey. In kind it is organism-based, Macaca fascicularis. The settings on record: in vivo.
In data set [12] the test system is Rattus norvegicus. The data set can be described thus: Induction of catalepsy in Sprague-Dawley rats at 10 to 30 mg/kg, sc measured after 60 mins. Details: dose 10-30 mg/kg, route subcutaneous. The settings on record: in vivo, 1 h. In kind it is organism-based.
The target of data set [13] is T2, Muscarinic acetylcholine receptor M1 (Homo sapiens) (UniProt P11229).
T2 sequence (whole entry): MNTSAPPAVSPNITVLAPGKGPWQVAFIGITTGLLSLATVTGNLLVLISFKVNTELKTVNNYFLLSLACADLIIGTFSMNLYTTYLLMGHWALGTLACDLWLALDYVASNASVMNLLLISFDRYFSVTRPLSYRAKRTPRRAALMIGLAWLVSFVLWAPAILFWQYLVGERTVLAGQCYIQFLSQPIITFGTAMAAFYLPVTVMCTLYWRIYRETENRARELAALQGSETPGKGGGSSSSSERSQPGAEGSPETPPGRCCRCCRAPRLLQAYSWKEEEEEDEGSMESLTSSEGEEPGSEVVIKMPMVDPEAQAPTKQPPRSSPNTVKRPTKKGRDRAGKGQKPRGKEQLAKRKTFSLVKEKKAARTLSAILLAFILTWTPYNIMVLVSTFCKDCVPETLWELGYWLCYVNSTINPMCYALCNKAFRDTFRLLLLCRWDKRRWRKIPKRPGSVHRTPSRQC
Kind of data set: Partial agonist activity at human M1 receptor in CHO cells assessed as calcium mobilization at 3 uM after 60 mins by FLIPR assay. In kind it is functional, cell-based.

For another data set, the system named is Mus musculus. The data set can be described thus: Induction of salivation in ddY mouse at 10 to 30 mg/kg, sc measured for 30 mins after drug administration. As to conditions: in vivo, 0.5 h. The data set is classed as organism-based. Details: dose 10-30 mg/kg, route subcutaneous.
In data set [14] the target is T3, Muscarinic acetylcholine receptor M4 (Homo sapiens) (UniProt P08173).
T3 sequence (whole entry): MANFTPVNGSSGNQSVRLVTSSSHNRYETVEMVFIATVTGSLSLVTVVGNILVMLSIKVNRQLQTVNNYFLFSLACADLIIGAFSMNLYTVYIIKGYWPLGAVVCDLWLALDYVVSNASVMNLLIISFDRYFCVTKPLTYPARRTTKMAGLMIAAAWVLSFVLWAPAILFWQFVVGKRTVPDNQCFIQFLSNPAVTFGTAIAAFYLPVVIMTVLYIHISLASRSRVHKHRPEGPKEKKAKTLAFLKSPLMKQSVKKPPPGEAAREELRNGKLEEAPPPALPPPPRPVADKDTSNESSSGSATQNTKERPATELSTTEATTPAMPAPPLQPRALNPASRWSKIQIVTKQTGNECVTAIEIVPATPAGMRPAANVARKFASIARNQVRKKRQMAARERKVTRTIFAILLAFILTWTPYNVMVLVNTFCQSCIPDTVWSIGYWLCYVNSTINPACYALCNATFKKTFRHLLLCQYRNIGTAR
The data set can be described thus: (§1) Partial agonist activity at human M4 receptor co-expressed with Galpha16 in CHO cells assessed as calcium mobilization after 60 mins by FLIPR assay. The data set is classed as functional, cell-based.

Data set [15] deals with T4, Muscarinic acetylcholine receptor M4 (Homo sapiens, UniProt P08173).
T4 sequence (P08173 whole entry): T3 sequence (whole entry)
Described as §1. In kind it is functional, cell-based.

Data set [16] relates to Cynomolgus monkey. Kind of data set: Cardiotoxicity in telemetered cynomolgus monkey assessed as prolongation of QRS duration at 1.5 to 6 mg/kg, sc measured after 1 to 4 hrs by telemetry method. In kind it is toxicity, organism-based, Macaca fascicularis. Details: route subcutaneous. As to conditions: in vivo.
For data set [17], the system named is Rattus norvegicus. Kind of data set: Antipsychotic activity in Sprague-Dawley rats assessed as reversal of methamphetamine-induced hyperlocomotion at 1 to 10 mg/kg, sc administered 30 mins prior to methamphetamine injection measured for 80 mins from 10 mins after methamphetamine challenge. In kind it is functional, organism-based.
Data set [18] deals with T2, Muscarinic acetylcholine receptor M1 (Homo sapiens). The data set can be described thus: (§2) Partial agonist activity at human M1 receptor in CHO cells assessed as calcium mobilization after 60 mins by FLIPR assay. The data set is classed as functional, cell-based.
The target of data set [19] is T5, Muscarinic acetylcholine receptor M1 (Homo sapiens, UniProt P11229).
T5 sequence (P11229 whole entry): T2 sequence (whole entry)
Described as §2. The data set is classed as functional, cell-based.

Calls of active or inactive are those of the source. The calls are words filed in the database; no cut-off is given here.

Sequence of Voltage-gated inwardly rectifying potassium channel KCNH2 (Q12809 whole entry): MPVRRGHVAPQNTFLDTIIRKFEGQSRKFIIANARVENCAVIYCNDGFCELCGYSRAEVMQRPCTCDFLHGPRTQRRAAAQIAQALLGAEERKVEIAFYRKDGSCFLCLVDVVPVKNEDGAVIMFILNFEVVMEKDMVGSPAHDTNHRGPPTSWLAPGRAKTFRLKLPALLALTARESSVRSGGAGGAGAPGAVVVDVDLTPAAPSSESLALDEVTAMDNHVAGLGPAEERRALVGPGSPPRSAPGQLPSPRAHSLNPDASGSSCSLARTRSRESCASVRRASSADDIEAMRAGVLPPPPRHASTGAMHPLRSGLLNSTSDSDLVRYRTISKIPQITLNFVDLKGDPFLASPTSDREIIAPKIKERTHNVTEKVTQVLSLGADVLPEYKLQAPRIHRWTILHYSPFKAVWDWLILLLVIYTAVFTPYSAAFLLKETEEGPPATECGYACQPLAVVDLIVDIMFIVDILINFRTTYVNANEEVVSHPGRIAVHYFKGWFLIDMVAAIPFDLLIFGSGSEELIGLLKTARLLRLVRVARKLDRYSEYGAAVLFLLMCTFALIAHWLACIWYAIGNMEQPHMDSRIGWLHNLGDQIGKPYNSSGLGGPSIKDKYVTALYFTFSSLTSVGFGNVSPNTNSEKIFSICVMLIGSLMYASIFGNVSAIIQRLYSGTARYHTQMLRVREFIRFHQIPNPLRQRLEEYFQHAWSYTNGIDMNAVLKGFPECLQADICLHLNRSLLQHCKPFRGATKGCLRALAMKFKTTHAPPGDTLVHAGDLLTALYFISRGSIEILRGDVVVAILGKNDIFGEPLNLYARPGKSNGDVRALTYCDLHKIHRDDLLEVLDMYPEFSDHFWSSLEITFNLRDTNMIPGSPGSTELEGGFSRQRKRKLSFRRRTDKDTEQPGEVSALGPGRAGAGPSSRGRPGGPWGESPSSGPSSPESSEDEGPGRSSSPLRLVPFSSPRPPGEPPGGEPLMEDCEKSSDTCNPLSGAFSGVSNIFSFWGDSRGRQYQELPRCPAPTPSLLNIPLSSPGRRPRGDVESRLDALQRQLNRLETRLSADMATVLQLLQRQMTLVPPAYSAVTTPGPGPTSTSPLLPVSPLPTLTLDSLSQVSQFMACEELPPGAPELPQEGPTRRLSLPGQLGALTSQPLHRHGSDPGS
Sequence of Muscarinic acetylcholine receptor M3 (Homo sapiens) (P20309 whole entry, looked up): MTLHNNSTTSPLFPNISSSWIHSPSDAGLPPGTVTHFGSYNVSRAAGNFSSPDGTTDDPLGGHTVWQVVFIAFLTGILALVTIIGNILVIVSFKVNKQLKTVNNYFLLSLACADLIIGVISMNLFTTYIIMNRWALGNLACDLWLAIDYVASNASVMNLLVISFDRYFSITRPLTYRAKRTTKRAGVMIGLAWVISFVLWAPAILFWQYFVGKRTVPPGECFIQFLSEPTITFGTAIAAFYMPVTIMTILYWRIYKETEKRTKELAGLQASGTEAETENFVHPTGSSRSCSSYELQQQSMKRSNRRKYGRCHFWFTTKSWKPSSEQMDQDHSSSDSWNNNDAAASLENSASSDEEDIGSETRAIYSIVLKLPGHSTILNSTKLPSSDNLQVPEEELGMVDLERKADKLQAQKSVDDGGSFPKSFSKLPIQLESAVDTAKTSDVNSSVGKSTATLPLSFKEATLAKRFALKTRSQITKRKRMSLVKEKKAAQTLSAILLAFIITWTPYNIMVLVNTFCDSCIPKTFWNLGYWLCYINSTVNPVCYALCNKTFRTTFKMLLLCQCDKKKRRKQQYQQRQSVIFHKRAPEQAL

On to `CCOC(=O)N1[C@@H]2CC[C@H]1C[C@H](CN1CC[C@H](N3C(=O)Cc4ccccc43)C1)C2`, for which the IC50 in data set [1] amounted to 2.4 µM. In addition, the Activity entry with Rattus norvegicus [2] was “Non-toxic”; with Cynomolgus monkey [3], “Non-toxic”; in the data set with Cynomolgus monkey [7], “Toxic”; in the data set with Cynomolgus monkey [9], “Non-toxic”; in data set [10] it was 25%; in the data set with Cynomolgus monkey [11], “Non-toxic”. The Activity result in the data set with Rattus norvegicus [12] is “Non-toxic”; in [13], 63%; with Mus musculus it was “Non-toxic”; in the data set on Cynomolgus monkey [16], “Non-toxic”. Moreover, the inhibition result with Rattus norvegicus [4], with Rattus norvegicus [6] and in the data set on Rattus norvegicus [17] was “Active” in each case. Also, the result in data set [5] and in [8] was inactive. For the same molecule, the Intrinsic activity in [14] was 42%; in [18], 60%. Moreover, the concentration giving a half-maximal response (EC50) in [15] is 0.029 µM; in [19], 0.012 µM.

Usually IC50 stands for the midpoint of a concentration-inhibition curve. In general, EC50 refers to the midpoint of the concentration-response curve.

The values are drawn from ChEMBL document CHEMBL2331215, “Discovery of novel N-substituted oxindoles as selective m1 and m4 muscarinic acetylcholine receptors partial agonists” (ACS Med Chem Lett, 2013).
